Earlier results on 1 compound are cited in EP0280593B1, “Composition on the basis of an amino-acid and vitamins for use in cancer therapy” (Rougereau, André, priority 1987, dated 1988).

The structures appear in SMILES notation.

One data set relates to rat. Conditions: par voie orale chez le rat.
A further data set relates to souris. The conditions noted are these: par voie orale chez la souris.

For the compound `NCCC(=O)O` [β-alanine], the “dose léthale DL₅₀” value with rat and with souris was over 10000 mg/kg in each case.
